In publication PMC7516806, “Hybrid Antimicrobial Peptide Targeting Staphylococcus aureus and Displaying Anti-infective Activity in a Murine Model” (Frontiers in Microbiology, 2020):
No end group written: not given here.

Experiments:
S. aureus 29213 [1] = experiment: Mouse model of subcutaneous infection; format: in vivo, ICR mice; conditions: 80× MIC
Method: (§1) To assess the antimicrobial activity of the peptide in vivo, a mouse model of subcutaneous infection was used ([Huang et al., 2011a]; [Omolo et al., 2017]). Female Institute for Cancer Research (ICR) mice (SPF, 20–25 g) were purchased from WeiTonglihua Co., Ltd. (Beijing, China), with eight animals per group. The mice were shaved on their backs and disinfected. S. aureus 29213 (100 μL) at a concentration of 1 × 10^8 CFU/mL was injected into the superficial skin of the mice. The mice were divided into four groups (n = 4), as follows: S. aureus + saline, S. aureus + S2 (80× MIC, 100 μL), S. aureus + vancomycin (Van) (80× MIC, 100 μL), and saline. S2, vancomycin, and saline were injected at the same site 1 h after infection. The mice were monitored over 24 h in an environmentally controlled room at 25 ± 1°C and 55 ± 5% relative humidity with a 12 h light/dark cycle.
(§2) To image the infected skin tissues, the mice were euthanized 24 h after the injection of S. aureus. Samples were fixed in 4% buffered paraformaldehyde and subjected to hematoxylin/eosin (HE) staining. The antimicrobial activity in vivo was determined by colony counting of infected skin samples. Skin homogenates were serially diluted in saline and incubated at 37°C for 24 h.

S. aureus 29213 [2] = experiment: Histology (HE) of infected skin tissue; format: in vivo, ICR mice; conditions: 24 h after injection of S. aureus
Method: as §1, §2

IL-6 = experiment: Cytokine ELISA in infected skin; format: in vivo, ICR mice; conditions: 24 h after treatment, P < 0.05
Method: as §1
(§3) The mice were treated as described above. Skin samples were treated according to the manufacturer’s instructions. The levels of tumor necrosis factor-alpha (TNF-α), interleukin-6 (IL-6), and granulocyte-macrophage colony-stimulating factor (GM-CSF) in infected skin were measured using enzyme-linked immunosorbent assay (ELISA) kits following the manufacturer’s instructions.

TNF-α = experiment: Cytokine ELISA in infected skin; format: in vivo, ICR mice; conditions: 24 h after treatment, P < 0.05
Method: as §1, §3

P. aeruginosa 27853 = experiment: MIC, modified microtiter dilution; format: cell-based, Pseudomonas aeruginosa; conditions: MHB, 2–7 × 10^5 CFU/ml, 37°C, 24 h, no turbidity, at least three independent repeats
Excerpt: (§4) The experiment was repeated at least three times independently.

L. rhamnosus 1.0385 = experiment: MIC, modified microtiter dilution; format: cell-based, Lactobacillus rhamnosus; conditions: 2–7 × 10^5 CFU/ml, 37°C, 24 h, no turbidity, at least three independent repeats
Excerpt: as §4

L. rhamnosus 1.0936 = experiment: MIC, modified microtiter dilution; format: cell-based, Lactobacillus rhamnosus; conditions: 2–7 × 10^5 CFU/ml, 37°C, 24 h, no turbidity, at least three independent repeats
Excerpt: as §4

L. rhamnosus 7469 = experiment: MIC, modified microtiter dilution; format: cell-based, Lactobacillus rhamnosus; conditions: 2–7 × 10^5 CFU/ml, 37°C, 24 h, no turbidity, at least three independent repeats
Excerpt: as §4

L. rhamnosus 1.0911 = experiment: MIC, modified microtiter dilution; format: cell-based, Lactobacillus rhamnosus; conditions: 2–7 × 10^5 CFU/ml, 37°C, 24 h, no turbidity, at least three independent repeats
Excerpt: as §4

S. pullorum 7913 = experiment: MIC, modified microtiter dilution; format: cell-based, Salmonella pullorum; conditions: MHB, 2–7 × 10^5 CFU/ml, 37°C, 24 h, no turbidity, at least three independent repeats
Excerpt: as §4

S. aureus 29213 [3] = experiment: MIC, modified microtiter dilution; format: cell-based, Staphylococcus aureus; conditions: MHB, 2–7 × 10^5 CFU/ml, 37°C, 24 h, no turbidity, at least three independent repeats
Excerpt: as §4

S. aureus 25923 = experiment: MIC, modified microtiter dilution; format: cell-based, Staphylococcus aureus; conditions: MHB, 2–7 × 10^5 CFU/ml, 37°C, 24 h, no turbidity, at least three independent repeats
Excerpt: as §4

L. plantarum 8014 = experiment: MIC, modified microtiter dilution; format: cell-based, Lactobacillus plantarum; conditions: 2–7 × 10^5 CFU/ml, 37°C, 24 h, no turbidity, at least three independent repeats
Excerpt: as §4

S. aureus 29213 [4] = experiment: MIC in the presence of physiological salts; format: cell-based, Staphylococcus aureus; conditions: three independent repeats, unit not given in Table 4
Method: as §4
The MIC of peptides was determined in the presence of salts at physiological concentrations (150 mM NaCl, 4.5 mM KCl, 6 μM NH4Cl, 8 μM ZnCl2, 1 mM MgCl2, 2 mM CaCl2, and 4 μM FeCl3) as described previously ([Dong et al., 2014]). All experiments were performed three times independently.

S. typhimurium 7731 = experiment: MIC, modified microtiter dilution; format: cell-based, Salmonella typhimurium; conditions: MHB, 2–7 × 10^5 CFU/ml, 37°C, 24 h, no turbidity, at least three independent repeats
Excerpt: as §4

S. typhimurium 14028 = experiment: MIC, modified microtiter dilution; format: cell-based, Salmonella typhimurium; conditions: MHB, 2–7 × 10^5 CFU/ml, 37°C, 24 h, no turbidity, at least three independent repeats
Excerpt: as §4

MRSA 43300 = format: cell-based, Staphylococcus aureus; conditions: MHB, 2–7 × 10^5 CFU/ml, 37°C, 24 h, no turbidity, at least three independent repeats
Excerpt: as §4

[5] = tested on: human red blood cells (hRBCs); experiment: Hemolysis assay; format: cell-based; conditions: 1.5 h, 37°C, absorbance 570 nm; 0.1% Triton X-100 positive control
Method: The cytotoxicity of peptides was determined by healthy human erythrocytes and the murine macrophage cell line RAW 264.7 via a hemolysis assay and MTT dye reduction assay, respectively ([Wang et al., 2018]). In the hemolysis assay, fresh hRBCs from healthy people were centrifuged for 5 min at 1,000 × g and then washed three times with PBS (pH = 7.2). The 100 μL erythrocyte suspension and peptides were incubated for 1.5 h in an incubator at 37°C. The 96-well plates were centrifuged at 1,000 × g for 5 min, and the supernatants were carefully aspirated. The absorbance at 570 nm indicated the leakage of hemoglobin. The hRBCs in the PBS sample was used as the negative control, and 0.1% Triton X-100 addition served as the positive control. In the MTT dye reduction assay, 1.0–2.0 × 10^5 cells were plated in 96-well plates and then treated with various concentrations of peptides for 4 h at 37°C in a 5% CO2 incubator. Subsequently, 50 μL of MTT was added to the plated cells at a final concentration of 0.5 mg/mL and incubated for 4 h. Then, the cells were centrifuged at 1000 × g for 5 min, and the supernatants were discarded. Formazan crystals were dissolved in 150 μL of DMSO, and the OD570 nm was measured using a microplate reader (TECAN GENios F129004; TECAN, Austria). The experiment was repeated three times independently.

E. coli UB1005 = experiment: MIC, modified microtiter dilution; format: cell-based, Escherichia coli; conditions: MHB, 2–7 × 10^5 CFU/ml, 37°C, 24 h, no turbidity, at least three independent repeats
Excerpt: as §4

E. coli 25922 = experiment: MIC, modified microtiter dilution; format: cell-based, Escherichia coli; conditions: MHB, 2–7 × 10^5 CFU/ml, 37°C, 24 h, lowest concentration with no turbidity, at least three independent repeats
Excerpt: as §4

E. coli K99 = conditions: MHB, 2–7 × 10^5 CFU/ml, 37°C, 24 h, no turbidity, at least three independent repeats
Excerpt: (§5) The bacterial strains Escherichia coli (E. coli) ATCC 25922, E. coli K88, E. coli K99, Pseudomonas aeruginosa (P. aeruginosa) ATCC 27853, Escherichia coli (E. coli) UB1005, Salmonella typhimurium 14028, Salmonella pullorum (S. pullorum) C7913, S. typhimurium C7731, S. aureus ATCC 29213, MRSA ATCC 43300, and S. aureus ATCC 25923 were obtained from the College of Veterinary Medicine, Northeast Agricultural University, China. Lactobacillus plantarum (L. plantarum) 8014, Lactobacillus rhamnosus (L. rhamnosus) 7469, L. rhamnosus 1.0911, L. rhamnosus 1.0936, and L. rhamnosus 1.0385 were obtained from the Key Laboratory of Food College, Northeast Agricultural University, China.
(§6) As in a previous study, the antimicrobial activities of the AMPs were investigated using a modified standard microtiter dilution method ([Dong et al., 2014]). The peptides were serially diluted with a solution containing 0.01% acetic acid and 0.2% bovine serum albumin (BSA, Sigma) in 96-well plates. The bacteria grew to the mid-log phase and then were dissolved in MHB at concentration of 2–7 × 10^5 CFU/ml. The peptides and bacterial solution were mixed in equal volume in a 37°C incubator for 24 h. […] Mueller-Hinton broth with microorganisms was used as the positive control, and the pure broth was used as the negative control. The experiment was repeated at least three times independently.

E. coli K88 = conditions: MHB, 2–7 × 10^5 CFU/ml, 37°C, 24 h, no turbidity, at least three independent repeats
Excerpt: as §5, §6

## CN[C@H](CC(C)C)C(=O)N[C@H]1C(=O)N[C@@H](CC(N)=O)C(=O)N[C@H]2C(=O)N[C@H]3C(=O)N[C@H](C(=O)N[C@H](C(=O)O)c4cc(O)cc(O)c4-c4cc3ccc4O)[C@H](O)c3ccc(c(Cl)c3)Oc3cc2cc(c3O[C@@H]2O[C@H](CO)[C@@H](O)[C@H](O)[C@H]2O[C@H]2C[C@](C)(N)[C@H](O)[C@H](C)O2)Oc2ccc(cc2Cl)[C@H]1O [vancomycin, reference compound]
S. aureus 29213 [1]; 100 μL injected at the infected site 1 h after infection, skin homogenate colony count after 24 h, P < 0.01
  decrease in bacterial colonies at infection site versus control group: 10 fold
S. aureus 29213 [1]; 100 μL, 1 h after infection
  ulceration (lesion) size, length × width: significantly reduced ulceration sizes
S. aureus 29213 [2]
  histomorphological changes of skin tissue (HE): good recovery
IL-6
  IL-6 generation in infected skin: suppressed
TNF-α
  TNF-α generation in infected skin: suppressed

## RWWWLL-NH2 [Peptide S7]
P. aeruginosa 27853
  MIC P. aeruginosa 27853: >64 µM
L. rhamnosus 1.0385
  MIC L. rhamnosus 1.0385: >64 µM
L. rhamnosus 1.0936
  MIC L. rhamnosus 1.0936: >64 µM
L. rhamnosus 7469
  MIC L. rhamnosus 7469: >64 µM
L. rhamnosus 1.0911
  MIC L. rhamnosus 1.0911: >64 µM
S. pullorum 7913
  MIC S. pullorum 7913: >64 µM
S. aureus 29213 [3]
  MIC S. aureus 29213: 8 µM
S. aureus 25923
  MIC S. aureus 25923: 8 µM
L. plantarum 8014
  MIC L. plantarum 8014: >64 µM
S. aureus 29213 [4]; 4 μM FeCl3
  MIC against S. aureus 29213, FeCl3: 8 µM
S. aureus 29213 [4]; 6 μM NH4Cl
  MIC against S. aureus 29213, NH4Cl: 8 µM
S. aureus 29213 [4]; 8 μM ZnCl2
  MIC against S. aureus 29213, ZnCl2: 4 µM
S. aureus 29213 [4]; 1 mM MgCl2
  MIC against S. aureus 29213, MgCl2: 8 µM
S. aureus 29213 [4]; 2 mM CaCl2
  MIC against S. aureus 29213, CaCl2: 16 µM
S. aureus 29213 [4]; 4.5 mM KCl
  MIC against S. aureus 29213, KCl: 8 µM
S. aureus 29213 [4]; 150 mM NaCl
  MIC against S. aureus 29213, NaCl: 8 µM
S. typhimurium 7731
  MIC S. typhimurium 7731: 16 µM
S. typhimurium 14028
  MIC S. typhimurium 14028: 32 µM
MRSA 43300
  MIC MRSA 43300: 8 µM
[5]
  hemolytic activity against hRBCs: barely exhibited hemolysis effects
E. coli UB1005
  MIC E. coli UB1005: 16 µM
E. coli 25922
  MIC E. coli 25922: 16 µM
E. coli K99
  MIC E. coli K99: 16 µM
E. coli K88
  MIC E. coli K88: 16 µM
